US9453005B2, “Inhibition of influenza M2 proton channel” (The Trustees Of The University Of Pennsylvania, priority 2008, dated 2016)

target: AM2(V27A) (Influenza A virus, UniProt P0DOF5, V27A); type: biochemical

**Q.** Which “% Activity” value does the source give for `NC1CCC2(CCCCC2)CC1` [Compound 8, Spiro[5.5]undec-3-ylamine] here?
**A.** Its value is 8 (47.34%) 9 (68.39%).

**Q.** How did the “% Activity” value turn out when `CNC1CCC2(CCCCC2)CC1` [Compound 9, Methyl-spiro[5.5]undec-3-yl-amine] was run?
**A.** The value was 8 (47.34%) 9 (68.39%).

**Q.** For `Cl.NC12CC3CC(CC(C3)C1)C2` [amantadine, reference compound], which “% Activity” value is on record?
**A.** The value was 99.1%.
